For orientation: EC50 means the concentration giving half of the maximal effect.

Structures are written as SMILES. “Also recorded” adds a separate entry of the source.

We go through three compounds from patent US20250282818A1, “SYRBACTIN MACROLACTAMS AND UNNATURAL ANALOGS AS PROTEASOME INHIBITORS FOR THE TREATMENT OF MULTIPLE MYELOMA AND CHEMOENZYMATIC SYNTHESIS THEREOF” (UNIVERSITY OF FLORIDA RESEARCH FOUNDATION,INCORPORATED, priority 2022, published 2025).

In data set [1] the test system is human MM (RPMI8226, U266, H929) and MCL (JeKo-1, HBL2, Mino) cell lines. The experiment in a line: MM and MCL cytotoxicity EC50 measurements, cell line panel. Format: cell-based. The following applies: 3 MM and 3 MCL cell lines, 48 hours. Here is the method: (§1) Finally, we sought to compare the new lead analog (50) against the clinical drug bortezomib. It has been shown that in addition to MM, mantle cell lymphoma (MCL) is also sensitive to proteasome inhibition. Indeed, bortezomib itself is FDA-approved for the treatment of MCL.^23 Therefore, we compared 50 and bortezomib in 3 different cell lines of both MM and MCL (FIG. 6E, FIG. 7).
(§2) Cells were seeded in a 96-well plate (20,000 cells/well) in cell culture media supplemented with indicated compounds (1,000× stock in DMSO) or DMSO and cultured for 48 hours. Toxicity was determined using the WST-1 assay (Roche) according to the protocol of the manufacturer. (n=3)

The test system of data set [2] is upregulated protein expression. Briefly: Global proteomics experiments. Format: cell-based, human.
In data set [3] the target is T1, proteasome subunit β5 (Homo sapiens, UniProt P28074).
T1 construct: Cells were then collected and lysed; endogenous in cells; host or cells: RPMI 8226
Briefly: Proteasome inhibition IC50 measurements in RPMI 8226 cells, substrate Suc-LLVY-AMC (β5). The data set is classed as cell-based. The source says: Our preliminary series of analogs (FIG. 3), including the natural product glidobactin A (2), were synthesized by largely the same route (FIG. 2).^13 Desoxycepafungin (38) was synthesized from Boc-Lys(Boc)-OH to assess the role of the macrocycle hydroxylation in 1 towards proteasome inhibition. The saturated cepafungin analog 39 was designed to address the possible role of rigidity in the tail fragment induced by the diene seen in many natural cepafungins and glidobactins. An analog bearing unsaturation at its macrocyclic lysine was envisioned to provide a head-to-head comparison between the cepafungin and syringolin A (4) macrocyclic core. […] Proteasome subunit β5 IC50 values were determined in situ in RPMI 8226 cells (FIG. 3). In close agreement with prior measurement of β5 IC50 for natural 1 and 2 in purified yeast proteasome,^8 in our hands the additional branching methyl in 1 indeed leads to ca. 5-fold improved IC50 compared to 2 in RPMI 8226 cells. […] Likewise, saturation of the fatty acid fragment in 39 causes ca. 14-fold decrease in β5 inhibition. This preliminary series of analogs highlighted that the macrocyclic hydroxylation, fatty acid unsaturation, and terminal lipid functionality are critical for potent proteasome inhibitory activity.
(§3) Cellular assays were performed with human multiple myeloma cell line RPMI 8226. First, relative inhibition of proteasome subunits β5 and β2 for all analogs and the natural product was measured at 30 nM compound concentration. Following incubation of the analogs in cell culture for 6 hours, cells were lysed and fluorogenic subunit-specific peptide substrates Suc-LLVY-AMC (β5) or Ac-RLR-AMC (β2) were incubated with the lysates, and fluorescence readings provided relative proteasome activity levels with respect to DMSO (FIG. 6A). Next, cytotoxicity screening was performed at 30 nM and 100 nM concentrations for better coverage of dynamic range (FIG. 6B). […] Therefore, the improved cytotoxicity of phenyl cepafungin 50 likely results from a more pronounced loss of β5 function in RPMI 8226 cells. This drastic increase in proteasome inhibition may be due to pi-stacking of the lipid tail phenyl ring with the β6 subunit residues Tyr106 and/or Tyr5. The β2 subunit-bound natural product has residues Tyr102 and Phe103 on the adjacent β3 subunit oriented further away from the terminal lipid methyl groups, and presumably would not facilitate pi-stacking to the extent possible at the adjacent β6 subunit (see FIG. 4, FIG. 9). […]
(§4) RPMI 8226 cells were seeded in a 6-well plate (1,000,000 cells/well) in cell culture media supplemented with indicated compounds (1,000× stock in DMSO) or DMSO and cultured for 6 hours. […] The plates were incubated at 37° C. for one hour and fluorescence was read at A360ex/A460em. […]

Data set [4] concerns the target T2, 20S proteasome (Homo sapiens, UniProt P28074+Q99436).
T2 construct: endogenous in cells
T2 sequence (P28074 60-263): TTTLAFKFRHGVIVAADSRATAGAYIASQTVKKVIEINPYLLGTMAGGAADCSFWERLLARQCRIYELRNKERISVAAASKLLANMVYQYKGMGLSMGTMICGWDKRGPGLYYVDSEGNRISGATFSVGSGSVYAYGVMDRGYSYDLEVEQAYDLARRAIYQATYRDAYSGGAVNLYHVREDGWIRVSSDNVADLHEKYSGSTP
T2 sequence (Q99436 44-277): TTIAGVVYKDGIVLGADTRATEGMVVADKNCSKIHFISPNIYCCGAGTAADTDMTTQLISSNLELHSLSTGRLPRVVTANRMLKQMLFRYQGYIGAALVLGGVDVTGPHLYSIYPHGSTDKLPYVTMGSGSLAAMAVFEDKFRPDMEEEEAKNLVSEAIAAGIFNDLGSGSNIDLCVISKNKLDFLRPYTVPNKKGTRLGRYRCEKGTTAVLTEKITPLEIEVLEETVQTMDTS
Briefly: In-gel competitive profiling and in situ competitive LC-MS/MS based chemoproteomics. Format: cell-based. To be noted: human MM cells, alkyne-tagged probe analog. The source says:
Prior to our work, a major knowledge gap in the bioactivity of cepafungin was its engagement of the proteasome in human MM cells and selectivity in targeting the proteasome over a multitude of other proteases. To address this, an alkyne-tagged probe analog was synthesized by our chemoenzymatic route and used for classical chemoproteomics studies.

The target in data set [5] is β5 subunit of purified yeast proteasome (Saccharomyces cerevisiae, UniProt P23724+P30656). To be noted: literature ref. 8; cited from earlier work.
Data set [6] relates to β2 and β5 subunits. The following applies: introduction, no test specified; cited from earlier work.
The subject of data set [7] is proteasome subunit β2. The experiment in a line: Proteasome inhibition IC50 measurements in RPMI 8226 cells, substrate Ac-RLR-AMC (β2). Format: cell-based, human. To be noted: 6 hours. Here is the method: as §3, with “Tyr5.” for “Tyr5. The β2 subunit-bound natural product has residues Tyr102 and Phe103 on the adjacent β3 subunit oriented further away from the terminal lipid methyl groups, and presumably would not facilitate pi-stacking to the extent possible at the adjacent β6 subunit (see FIG. 4, FIG. 9).”
as §4

The subject of data set [8] is RPMI 8226 cells. The experiment in a line: RPMI 8226 cytotoxicity EC50 measurements (WST-1). The data set is classed as cell-based, human. On the procedure: RPMI 8226 cells were seeded in a 96-well plate (20,000 cells/well) in cell culture media supplemented with indicated compounds (1,000× stock in DMSO) or DMSO and cultured for 48 hours. Toxicity was determined using the WST-1 assay (Roche) according to the protocol of the manufacturer. (n=3)
Cytotoxicity of phenyl cepafungin (50) and hybrid analog (S39) in RPMI 8226 RPMI 8226 cells were seeded in a 96-well plate (20,000 cells/well) in cell culture media supplemented with indicated compounds (1,000× stock in DMSO) or DMSO and cultured for 48 hours. Toxicity was determined using the WST-1 assay (Roche) according to the protocol of the manufacturer. (n=3)
For orientation: Tetrazolium assays rely on reduction of a dye to a coloured formazan, in cell work by metabolically active cells.

The test system of data set [9] is RPMI 8226 cells. The experiment in a line: RPMI8226 cytotoxicity screening (WST-1). Format: cell-based, human. The following applies: 30 nM and 100 nM, cytotoxicities track with proteasome inhibition at 30 nM. On the procedure:
Cellular assays were performed with human multiple myeloma cell line RPMI 8226. First, relative inhibition of proteasome subunits β5 and β2 for all analogs and the natural product was measured at 30 nM compound concentration. Following incubation of the analogs in cell culture for 6 hours, cells were lysed and fluorogenic subunit-specific peptide substrates Suc-LLVY-AMC (β5) or Ac-RLR-AMC (β2) were incubated with the lysates, and fluorescence readings provided relative proteasome activity levels with respect to DMSO (FIG. 6A). Next, cytotoxicity screening was performed at 30 nM and 100 nM concentrations for better coverage of dynamic range (FIG. 6B). […] Therefore, the improved cytotoxicity of phenyl cepafungin 50 likely results from a more pronounced loss of β5 function in RPMI 8226 cells. This drastic increase in proteasome inhibition may be due to pi-stacking of the lipid tail phenyl ring with the β6 subunit residues Tyr106 and/or Tyr5. The β2 subunit-bound natural product has residues Tyr102 and Phe103 on the adjacent β3 subunit oriented further away from the terminal lipid methyl groups, and presumably would not facilitate pi-stacking to the extent possible at the adjacent β6 subunit (see FIG. 4, FIG. 9). […] These combined modifications were made in hopes that the effects of both substitutions would be additive.
[…] Toxicity was determined using the WST-1 assay (Roche) according to the protocol of the manufacturer. (n=3)

In data set [10] the test system is U266. Briefly: MM and MCL cytotoxicity EC50 measurements, U266. The data set is classed as cell-based. The following applies: Homo sapiens, U-266; U266, 48 hours, WST-1. Here is the method:
as §1, §2

As to `CC(C)C[C@H](NC(=O)[C@H](Cc1ccccc1)NC(=O)c1cnccn1)B(O)O` [bortezomib, reference compound], the “cytotoxicity compared with bortezomib, in words” value in data set [1] is “low-nanomolar cytotoxicity”. In addition, in data set [2], the “overlap in upregulated protein expression between 1 and bortezomib” value was “high degree of overlap in upregulated protein expression”.
For `CC(C)CCCCC/C=C/C=C\C(=O)N[C@H](C(=O)N[C@H]1C[C@H](O)CCNC(=O)/C=C\[C@H](C)NC1=O)[C@@H](C)O` [compound 1, cepafungin I], in [3] (in situ in RPMI 8226 cells), the “fold improved β5 IC50 of 1 compared to 2” value is “ca. 5 fold” and the “fold improved β5 inhibition of 1 compared to desoxy-cepafungin analog 38” value is “ca. 11 fold”. Besides, the “selectivity of proteasome engagement, in words” value in data set [4] was “exceptional selectivity”. Moreover, the “selectivity of proteasome engagement, in words” value in data set [4] (listed as cepafungin) is “exceptional selectivity towards several proteasome subunits”. Further, in [2], the “overlap in upregulated protein expression between 1 and bortezomib” value is reported as “high degree of overlap in upregulated protein expression”. For the same compound, the “fold improvement of β5-subunit inhibition compared to glidobactin A (2)” value in data set [5] is “ca. 5 fold”. In addition, the “proteasome inhibitory activity, in words” value in data set [6] is listed as “most potent proteasome inhibitor among the syrbactins; also recorded: low nanomolar inhibitory activity”.
As for `C[C@H]1/C=C/C(=O)NCC[C@H](O)C[C@H](NC(=O)[C@@H](NC(=O)/C=C/C=C/CCCCCc2ccccc2)[C@@H](C)O)C(=O)N1` [compound 50, (2E,4E)-N-((2S,3R)-3-hydroxy-1-(((5S,8S,10S,E)-10-hydroxy-5-methyl-2,7-dioxo-1,6-diazacyclododec-3-en-8-yl)amino)-1-oxobutan-2-yl)-10-phenyldeca-2,4-dienamide], in data set [3] (RPMI 8226 cells, 6 hours), the “fold lower β5 IC50 than 1 / fold greater β5 inhibitory activity” value is listed as 7 fold. The “β2 subunit IC50 compared with 1, in words” value in data set [7] is “roughly similar IC50”. Moreover, the 50% effective concentration (EC50) is 3 nM in data set [8] (Homo sapiens, RPMI 8226, 48 hours, WST-1) and around 20 nM in [10]. For the same compound, the “fold greater cytotoxicity than parent cepafungin I 1” value in data set [8] (RPMI 8226, EC50 comparison) was 4-5 fold. The “potency compared with parent natural product 1 in screening (FIG. 6A, 6B)” value in data set [9] is reported as “more potent than the parent natural product 1; also recorded: most potent”. The “cytotoxicity compared with bortezomib, in words” value in [1] is listed as “similarly low-nanomolar cytotoxicity in all cell lines as bortezomib except for U266”.
